Laboratory results: patent US20240245789A1, “POLYMER CONJUGATES OF DRUGS TARGETING 5-HT AND OTHER RECEPTORS IN THE CENTRAL NERVOUS SYSTEM (CNS) THAT ALSO TARGETS RECEPTORS OUTSIDE OF THE CNS” (Arbormentis LLC, priority 2021, published 2024)

Tests used:
[1] = test system: mice fed with standard diet; conditions: 0.05 mg/kg daily
[2] = test system: CCL-2; assay: mRNA expression of CCL2 in HepG2 cells (in vitro NAFLD model); conditions: PA:OA mix
[3] = test system: TNF-α; assay: mRNA expression of TNF-α in HepG2 cells (in vitro NAFLD model); conditions: PA:OA mix
[4] = test system: NMDAR1 receptor; assay: protein expression of NMDAR1 in the liver of NAFLD mice

Question: `CN(C)CCc1c[nH]c2cccc(OP(=O)(O)O)c12` [psilocybin] was tested. Which “signs of hepatic damage (hepatotoxicity)” value [1] did it give?
Answer: no signs of hepatic damage were observed

Question: Which “mRNA expression of CCL-2” value [2] does the source give for `CN(C)CCc1c[nH]c2cccc(O)c12` [psilocin] here?
Answer: reduction in the mRNA expression

Question: What about the “mRNA expression of TNF-α” value [3] of the same compound?
Answer: reduction in the mRNA expression

Question: What about the “expression of the NMDAR1 receptor in the liver” value [4] of the same compound?
Answer: counteracting its overexpression induced by steatosis
